Experiments:
LNCaP tumor-bearing mice [1] = test: Ex vivo biodistribution in LNCaP tumor-bearing mice; design: species or system mouse
Description: (§1) Imaging, biodistribution and radioligand therapy experiments were performed following previously published procedures using male NOD-scid IL2Rg^null (NSG) or NOD.Cg-Rag1^tm1MomIl2rg^tm1Wjl/SzJ (NRG) mice [10]-[12],[14]-[15]. The experiments were conducted according to the guidelines established by the Canadian Council on Animal Care and approved by Animal Ethics Committee of the University of British Columbia. The mice were briefly sedated by inhalation of 2% isoflurane in oxygen, and implanted subcutaneously with 1×10^7 LNCaP cells behind the left shoulder. The mice were imaged or used in biodistribution studies when the tumor grew to 5-8 mm in diameter over a period of 4-5 weeks.
For biodistribution studies, the mice were injected with the radioligand (2-4 MBq) as described above. For blocking, the mice were co-injected with nonradioactive DCFPyL (0.5 mg). At predetermined time points, the mice were sedated by isoflurane inhalation and euthanized by CO2 inhalation. Blood was withdrawn by cardiac puncture, and organs/tissues of interest were collected, weighed and counted using an automatic gamma counter (Tables S4-S7).

[2] = Radiation dosimetry for major organs of 25-g mice (OLINDA, MOBY phantom); format: in vivo, mouse
Description: Internal dosimetry estimates were calculated using the organ level internal dose assessment (OLINDA) software v.2.2 following our previously published procedures. These estimates were performed for the mouse using the 25g MOBY phantom, and for the tumors using the previously reported unit density sphere model. Both the phantom and the sphere model are available in OLINDA and require the input of the total number of decays normalized by injected activity in units of MBq×h/MBq for each of the source organ/tumor.
The biodistribution data (available in Table S5-S7) were used to determine the kinetics input values required by OLINDA. First, each of the values was decayed to its corresponding time point (the values on the table are shown at injection time). Then the different time-points of the uptake data (%ID/g) for each organ were fitted to both mono-exponential (%ID/g = ae^⎯bt) and bi-exponential (%ID/g = ae^⎯bt + ce^⎯dt) functions using in-house software developed in Python. The best fit was selected based on maximizing the coefficient of determination (R^2) of the fit and minimizing the residuals. The areas under the curves were analytically calculated based on the parameters obtained from the best fit of each organ and this provided the kinetic input values required by OLINDA.
In the mouse case, the adrenals, blood, fat, and muscle are not modeled in the phantom. These organs were grouped together and included in what OLINDA calls the remainder of the body. Lastly, the numbers of decays in the tumors were also calculated based on the biodistribution data of the mice and the values were inputted into the sphere model available in OLINDA.

LNCaP tumor-bearing mice [3] = test: Radioligand therapy study in LNCaP tumor-bearing mice; format: in vivo, mouse
Description: as §1
For radiotherapy study, tumor-bearing mice were injected with saline (the control group), [^177Lu]Lu-PSMA-617 (37 MBq) or [^177Lu]-HTK03170 (37, 18.5 and 9.3 MBq) (n = 7-8 per treatment group). Tumor size and body weight were measured twice a week from the date of injection (Day 0) until completion of the study (Day 180). Endpoint criteria were defined as > 20% weight loss, tumor volume > 1000 mm^3, or active ulceration of the tumor.

COc1ccc(CCCC(=O)NCC(=O)N[C@@H](CCCCNC(=O)CN2CCN(CC(=O)[O-])CCN(CC(=O)[O-])CCN(CC(=O)[O-])CC2)C(=O)NC[C@H]2CC[C@H](C(=O)N[C@@H](Cc3c4ccccc4cc4ccccc34)C(=O)NCCCC[C@H](NC(=O)N[C@@H](CCCC(=O)O)C(=O)O)C(=O)O)CC2)cc1.[177Lu+3] [[^177Lu]Lu-HTK03170]
Tumor:Muscle uptake ratio (LNCaP tumor-bearing mice [1]; 24 h post-injection): 736 ± 333
Tumor:Salivary gland uptake ratio (LNCaP tumor-bearing mice [1]; 24 h post-injection): 202 ± 49.3
Adrenal glands uptake (LNCaP tumor-bearing mice [1]; 72 h post-injection): 0.27 ± 0.11 %ID/g
Blood uptake (LNCaP tumor-bearing mice [1]; 72 h post-injection): 0.06 ± 0.02 %ID/g
Blood:Salivary gland uptake ratio (LNCaP tumor-bearing mice [1]; 72 h post-injection): 0.57 ± 0.17
Bone uptake (LNCaP tumor-bearing mice [1]; 72 h post-injection): 0.03 ± 0.02 %ID/g
Brain uptake (LNCaP tumor-bearing mice [1]; 72 h post-injection): 0.01 ± 0.00 %ID/g
Fat uptake (LNCaP tumor-bearing mice [1]; 72 h post-injection): 0.04 ± 0.02 %ID/g
Heart uptake (LNCaP tumor-bearing mice [1]; 72 h post-injection): 0.09 ± 0.03 %ID/g
Intestines uptake (LNCaP tumor-bearing mice [1]; 72 h post-injection): 0.14 ± 0.11 %ID/g
Kidneys uptake (LNCaP tumor-bearing mice [1]; 72 h post-injection): 2.56 ± 0.62 %ID/g
Lacrimal glands uptake (LNCaP tumor-bearing mice [1]; 72 h post-injection): 0.01 ± 0.01 %ID/g
Liver uptake (LNCaP tumor-bearing mice [1]; 72 h post-injection): 0.36 ± 0.13 %ID/g
Lungs uptake (LNCaP tumor-bearing mice [1]; 72 h post-injection): 0.18 ± 0.04 %ID/g
Muscle uptake (LNCaP tumor-bearing mice [1]; 72 h post-injection): 0.02 ± 0.01 %ID/g
Pancreas uptake (LNCaP tumor-bearing mice [1]; 72 h post-injection): 0.04 ± 0.01 %ID/g
Salivary glands uptake (LNCaP tumor-bearing mice [1]; 72 h post-injection): 0.11 ± 0.03 %ID/g
Spleen uptake (LNCaP tumor-bearing mice [1]; 72 h post-injection): 0.38 ± 0.15 %ID/g
Stomach uptake (LNCaP tumor-bearing mice [1]; 72 h post-injection): 0.28 ± 0.33 %ID/g
Testes uptake (LNCaP tumor-bearing mice [1]; 72 h post-injection): 0.24 ± 0.04 %ID/g
Thyroid uptake (LNCaP tumor-bearing mice [1]; 72 h post-injection): 0.15 ± 0.01 %ID/g
Tumor uptake (LNCaP tumor-bearing mice [1]; 72 h post-injection): 59.3 ± 16.0 %ID/g
Tumor:Blood uptake ratio (LNCaP tumor-bearing mice [1]; 72 h post-injection): 1029 ± 459
Tumor:Kidney uptake ratio (LNCaP tumor-bearing mice [1]; 72 h post-injection): 24.0 ± 6.93
Tumor:Muscle uptake ratio (LNCaP tumor-bearing mice [1]; 72 h post-injection): 3374 ± 1417
Tumor:Salivary gland uptake ratio (LNCaP tumor-bearing mice [1]; 72 h post-injection): 566 ± 236
Adrenal glands uptake (LNCaP tumor-bearing mice [1]; 120 h post-injection): 0.23 ± 0.18 %ID/g
Blood uptake (LNCaP tumor-bearing mice [1]; 120 h post-injection): 0.02 ± 0.01 %ID/g
Blood:Salivary gland uptake ratio (LNCaP tumor-bearing mice [1]; 120 h post-injection): 0.31 ± 0.06
Bone uptake (LNCaP tumor-bearing mice [1]; 120 h post-injection): 0.02 ± 0.01 %ID/g
Fat uptake (LNCaP tumor-bearing mice [1]; 120 h post-injection): 0.04 ± 0.03 %ID/g
Heart uptake (LNCaP tumor-bearing mice [1]; 120 h post-injection): 0.05 ± 0.02 %ID/g
Intestines uptake (LNCaP tumor-bearing mice [1]; 120 h post-injection): 0.05 ± 0.06 %ID/g
Kidneys uptake (LNCaP tumor-bearing mice [1]; 120 h post-injection): 1.48 ± 0.44 %ID/g
Liver uptake (LNCaP tumor-bearing mice [1]; 120 h post-injection): 0.26 ± 0.11 %ID/g
Lungs uptake (LNCaP tumor-bearing mice [1]; 120 h post-injection): 0.07 ± 0.02 %ID/g
Muscle uptake (LNCaP tumor-bearing mice [1]; 120 h post-injection): 0.01 ± 0.01 %ID/g
Pancreas uptake (LNCaP tumor-bearing mice [1]; 120 h post-injection): 0.02 ± 0.02 %ID/g
Salivary glands uptake (LNCaP tumor-bearing mice [1]; 120 h post-injection): 0.05 ± 0.03 %ID/g
Spleen uptake (LNCaP tumor-bearing mice [1]; 120 h post-injection): 0.53 ± 0.35 %ID/g
Stomach uptake (LNCaP tumor-bearing mice [1]; 120 h post-injection): 0.08 ± 0.15 %ID/g
Testes uptake (LNCaP tumor-bearing mice [1]; 120 h post-injection): 0.16 ± 0.04 %ID/g
Thyroid uptake (LNCaP tumor-bearing mice [1]; 120 h post-injection): 0.09 ± 0.04 %ID/g
Tumor uptake (LNCaP tumor-bearing mice [1]; 120 h post-injection): 71.9 ± 19.4 %ID/g
Tumor:Blood uptake ratio (LNCaP tumor-bearing mice [1]; 120 h post-injection): 3996 ± 2182
Tumor:Kidney uptake ratio (LNCaP tumor-bearing mice [1]; 120 h post-injection): 46.4 ± 21.3
Tumor:Muscle uptake ratio (LNCaP tumor-bearing mice [1]; 120 h post-injection): 12778 ± 19955
Tumor:Salivary gland uptake ratio (LNCaP tumor-bearing mice [1]; 120 h post-injection): 1167 ± 531
Peaked tumor uptake relative to ^68Ga-labeled non-albumin-binder analog (LNCaP tumor-bearing mice [1]; mouse, in vivo): ~ 3 fold
Peaked average tumor uptake (LNCaP tumor-bearing mice [1]; peak over 1-120 h post-injection): ~ 60 %ID/g
Time of peak tumor uptake (LNCaP tumor-bearing mice [1]; post-injection, listed as 177Lu-labeled HTK03170): 4 to 24 h
Kinetics value ([2]; source organ Brain): 2.55E-02 MBq-h/MBq
Kinetics value ([2]; source organ Cortical bone): 1.91E-01 MBq-h/MBq
Kinetics value ([2]; source organ Heart): 7.94E-02 MBq-h/MBq
Kinetics value ([2]; source organ Kidneys): 1.33E+00 MBq-h/MBq
Kinetics value ([2]; source organ Large intestine contents): 1.12E-01 MBq-h/MBq
Kinetics value ([2]; source organ Liver): 1.24E+00 MBq-h/MBq
Kinetics value ([2]; source organ Lungs): 6.60E-02 MBq-h/MBq
Kinetics value ([2]; source organ Pancreas): 4.12E-02 MBq-h/MBq
Kinetics value ([2]; source organ Remainder of the body): 4.23E+00 MBq-h/MBq
Kinetics value ([2]; source organ Small intestine): 3.35E-01 MBq-h/MBq
Kinetics value ([2]; source organ Spleen): 1.04E-01 MBq-h/MBq
Kinetics value ([2]; source organ Stomach): 1.32E-02 MBq-h/MBq
Kinetics value ([2]; source organ Testes): 9.21E-02 MBq-h/MBq
Kinetics value ([2]; source organ Thyroid): 5.15E-03 MBq-h/MBq
Kinetics value ([2]; source organ Urinary bladder): 1.11E+00 MBq-h/MBq
Median survival (LNCaP tumor-bearing mice [3]; 9.3 MBq injected): 90 days
Median survival (LNCaP tumor-bearing mice [3]; 18.5 MBq injected): 131 days
Body weight of the treated mice (LNCaP tumor-bearing mice [3]; 37 MBq injected): continuously increasing body weight
Median survival (LNCaP tumor-bearing mice [3]; 37 MBq injected): > 180 days

— publication PMC10465233, “Lys-urea-Aad, Lys-urea-Cmc and Lys-urea-Cms as potential pharmacophores for the design of PSMA-targeted radioligands to reduce off-target uptake in kidneys and salivary glands” (Theranostics, 2023)
